Test results from publication PMC4502414, “Transforming berberine into its intestine-absorbable form by the gut microbiota” (Scientific Reports, 2015).

Experiments:
[1] = biological target: T1, monoamine oxidase-B (MAO-B) (Homo sapiens, UniProt P27338); details: cell-free system, dhBBR 100 μM, 30 min
T1 sequence (P27338 1-520): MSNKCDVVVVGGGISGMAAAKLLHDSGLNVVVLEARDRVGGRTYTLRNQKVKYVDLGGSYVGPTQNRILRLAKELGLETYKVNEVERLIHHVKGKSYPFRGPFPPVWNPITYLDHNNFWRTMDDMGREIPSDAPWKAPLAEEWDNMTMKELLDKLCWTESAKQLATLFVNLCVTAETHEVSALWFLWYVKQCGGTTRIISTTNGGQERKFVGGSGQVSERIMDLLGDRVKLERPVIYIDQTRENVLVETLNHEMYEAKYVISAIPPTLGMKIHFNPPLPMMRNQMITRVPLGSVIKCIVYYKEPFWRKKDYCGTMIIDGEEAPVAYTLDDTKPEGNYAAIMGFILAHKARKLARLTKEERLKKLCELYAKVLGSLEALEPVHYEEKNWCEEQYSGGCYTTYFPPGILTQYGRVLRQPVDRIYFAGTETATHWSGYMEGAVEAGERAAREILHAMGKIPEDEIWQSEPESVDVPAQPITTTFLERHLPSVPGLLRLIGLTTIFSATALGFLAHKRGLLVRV

[2] = Transformation of dhBBR in pooled human intestinal microsomes (HIMs); assay type: in vitro ADME
Method: The mixture was incubated at 37 °C with exposure to air for 2, 5 and 10 min and was terminated by the addition of 200 μl of ice-cold acetonitrile. Then, 20 μl of the internal standard was added to the mixture, and the mixture was centrifuged at 14,000 g for 5 min. Fifty microliters of the supernatant was injected into the HPLC instrument for analysis. The control samples were incubated under the same conditions but without HIMs.

[3] = Distribution of dhBBR in organs of SD rats orally treated with BBR; assay type: in vivo; details: 24 h after oral BBR 200 mg/kg
Method: Three segments of small intestine (duodenum, jejunum and ileum) were collected 0, 6, 12, 24, 36, and 48 h after the oral administration of BBR in SD rats. The small intestine tissues were washed thoroughly with saline and dried. After being weighed, the samples were homogenized with mixed solution (ethanol: water, 1:1) at a ratio of 1:2 [w(g)/v(ml)]. The samples were centrifuged at 7,500 g for 10 min, and the supernatant was collected and evaporated to dryness in a water bath at 40 °C using a rotary evaporator. The residues of the tissue extraction were dissolved in methanol (250 μl) and vortex-mixed for 5 min. The tissue solution was then centrifuged (at 14,000 g for 5 min), and the supernatant was passed through a 0.22-μm filter. An aliquot of 1 μl of the supernatant was injected into the GC-MS instrument, and a 10-μl aliquot was used for LC-MS/MS analysis. The level of dhBBR was calculated based on the standard curve, and BBR and other metabolites was quantified using the method described above.

[4] = biological target: T2, MAO-B (Rattus norvegicus, UniProt P19643); details: intestinal homogenate, 30 min, no inhibitor
T2 sequence (P19643 1-520): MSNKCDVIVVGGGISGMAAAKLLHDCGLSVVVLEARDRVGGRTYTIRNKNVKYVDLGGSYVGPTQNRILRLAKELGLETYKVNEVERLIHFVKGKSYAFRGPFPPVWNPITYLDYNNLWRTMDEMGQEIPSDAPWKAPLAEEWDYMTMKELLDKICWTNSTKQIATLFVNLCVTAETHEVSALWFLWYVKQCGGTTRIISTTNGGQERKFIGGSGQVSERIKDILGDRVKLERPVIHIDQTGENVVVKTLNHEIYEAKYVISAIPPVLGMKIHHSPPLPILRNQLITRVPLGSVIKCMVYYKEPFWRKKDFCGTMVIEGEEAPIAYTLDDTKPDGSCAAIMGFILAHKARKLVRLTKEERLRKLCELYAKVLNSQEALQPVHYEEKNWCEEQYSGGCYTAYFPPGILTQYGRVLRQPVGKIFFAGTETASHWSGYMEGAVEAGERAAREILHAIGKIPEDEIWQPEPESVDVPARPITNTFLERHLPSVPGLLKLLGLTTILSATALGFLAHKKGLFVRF

[5] = Effect of heat inactivation and vitamin C on dhBBR-to-BBR transformation in rat small intestine homogenate; assay type: in vitro ADME; details: homogenate boiled for 2 min
Method: The rats (n = 3) were sacrificed to obtain fresh small intestine homogenate. The homogenate was then boiled for 2 min to inactivate all of the enzymes. After pre-incubation at 37 °C for 2 min, 5 μl of dhBBR (10 mM, dissolved in DMSO) was added into the inactivated homogenate, and fresh homogenate (active one) was used as a reference. The sample was mixed thoroughly and centrifuged at 16,000 g for 5 min. The supernatant was transferred into new tubes, treated with 500 μl of acetonitrile, and then centrifuged. Twenty-microliter aliquots were used for the HPLC analysis.
To examine the oxidative reaction, 100 μl of vitamin C was pre-incubated with the inactivated homogenate; the final concentrations of vitamin C were 95, 9.5 and 0.95 mM. The superoxide anion in the sample was detected with an O2^− ELISA kit (Beijing Biolab Co., Ltd., Beijing, China; lot: 201404) following the manufacturer’s instructions.

[6] = tested on: 17 intestinal bacteria; assay: Anti-bacterial test (MIC, broth microdilution); assay type: cell-based; details: 17 intestinal bacteria strains, 24 h
Method: Seventeen bacterial strains (see above) were used in the susceptibility test for BBR and dhBBR. The bacterial strains, which belong to different species of bacteria, were collected and identified as described above. The minimum inhibitory concentrations (MICs) of BBR and dhBBR after 24 h were determined through the broth microdilution method according to the CLSI guidelines. BBR and dhBBR were tested at a concentration range of 8 to 512 μg/ml. The MIC was defined as the lowest concentration of an agent that prevents turbidity. The experiment was repeated three times. All of the bacterial strains tested in this study (S. aureus ATCC 29213, E. faecalis ATCC 29212, E. coli ATCC 25922, S. aureus 08-43, S. epidermidis 12-12, E. faecium 13-01, E. faecalis 13-01, E. coli 06-05, K. pneumoniae 13-14, Ps. aeruginosa 13-10, A. baumannii 13-02, E. cloacae 13-12, and P. mirabilis 13-01) were facultative anaerobes, of which S. aureus ATCC 29213, E. faecalis ATCC 29212 and E. coli ATCC 25922 were standard strains from ATCC (USA) and served as quality controls. L. casei ATCC 334, L. acidophilus ATCC 4356, B. longum ATCC 15707, and B. breve ATCC 15700 were also tested in this anti-bacterial experiment. Ampicillin was used as the positive control.

For `COc1ccc2c(c1OC)CN1CCc3cc4c(cc3C1=C2)OCO4` [dhBBR, dihydroberberine], the “reversion from dhBBR to BBR attributable to MAO-B” value [1] was “approximately 10%”, the dhBBR-to-BBR reversion [2] was “very rapidly” and the “organs in which dhBBR was detected” value [3] was “detected in intestinal tissue only”. The dhBBR-to-BBR reversion [4] was “complete”, the “effect of heat inactivation of homogenate on dhBBR-to-BBR reversion” value [5] was “did not reduce the dhBBR-to-BBR reversion” and the “antibacterial effect compared with BBR” value [6] was “even weaker than that of BBR in 5 of the 17 intestinal bacteria strains”.
